EP4733761A1, “METHOD FOR SCREENING FOR PROTEINS ASSOCIATED WITH NEURODEGENERATIVE DISEASES AND THERAPEUTIC OR PROPHYLACTIC DRUGS FOR NEURODEGENERATIVE DISEASES” (priority 2023, dated 2026)
Peptide text beside a SMILES is read from it. * marks the point of attachment. Dansyl = CN(C)c1cccc2c(S(=O)(=O)*)cccc12

Key:
Dnc-PR20/Kapβ2 = assay: Screening for DPRs-Kapβ2 binding inhibitors with additives (probe fluorescence attenuation); design: species or system human; details: Dnc-PR20 300 nM, Kapβ2 400 nM
Description: A buffer solution (20 mM Tris-HCl (pH 7.5), 150 mM NaCl, and 2 mM DTT (final concentration)) was used to prepare a mixture of Dnc-PR20 (final concentration 300 nM) and Kapβ2 (final concentration 400 nM), and an automatic dispensing system (Andrew+, Andrew Alliance) was used to add 20 µL/well of each to a 384-well microplate (Corning, 3820). After incubation at 35°C for 10 min, the fluorescence intensity (fluorescence wavelength: 520 nm) and fluorescence spectrum (fluorescence wavelength: 400-700 nm) were measured at an excitation wavelength of 340 nm using a microplate reader (Cytation 5, BioTek). Then, 5 µL/well of various concentrations of additives (poly K50 or IgG/pure water) were added using an automated pipetting system, and after incubation at 35°C for 10 minutes, the fluorescence intensity and fluorescence spectrum were measured under the same conditions. As a control, the Dnc-PR20 solution without Kapβ2 was measured for fluorescence intensity and fluorescence spectrum in the same manner.
In addition to poly K50 and IgG, the 520 nm fluorescence intensity of Dnc-PR20 was measured with PAMAM, GST-M9M, RanGTP, ATP, and HSA as additives, using the same procedure as in Section 6 above.

Kapβ2 = assay: Kapβ2-induced fluorescence change of dansyl-DPR probes; type: binding, human; details: for fluorescence intensity / spectrum change on addition of Kapβ2: various Kapβ2 concentrations
Description: (§1) A buffer solution (20 mM Tris-HCl (pH 7.5), 150 mM NaCl, and 2 mM DTT (final concentration)) was used to prepare the probe solutions (final concentration 300 nM) for probes 1 to 7 above. Each probe solution was added to a 384-well microplate (Corning, 3575) at 30 µL/well using an automated pipetting system (Andrew+, Andrew Alliance). After incubation at 35°C for 10 min, fluorescence intensity (fluorescence wavelength: 520 nm) and fluorescence spectrum (fluorescence wavelength: 400-700 nm) at an excitation wavelength of 340 nm were measured using a microplate reader (Cytation 5, BioTek). Then, various concentrations of Kapβ2 solution (Kapβ2/pure water) were added to the 384-well microplate at 30 µL/well using an automated pipetting system. After incubation at 35°C for 10 minutes, fluorescence intensity and fluorescence spectrum were measured under the same conditions as above.

MBP-FUS = assay: FUS-induced fluorescence change of dansyl-DPR probes; type: binding, human; details: for fluorescence intensity / spectrum change on addition of MBP-FUS: various MBP-FUS concentrations
Description: as §1
The same procedure as in Section 2 above was used, except that MBP-tagged FUS (MBP-FUS) solution (MBP-FUS/pure water) was used in place of the Kapβ2 solution, to measure the fluorescence intensity and fluorescence spectra of Dnc-PR20 (probe 1) and Dnc-GP20 (probe 2).

β-lactoglobulin = assay: Fluorescence change of probes by various proteins: β-lactoglobulin; type: binding, bovine; details: for fluorescence spectrum / 540 nm fluorescence intensity change on addition of β-lactoglobulin: 1600 nM protein solution, probe 300 nM
Description: as §1
(§2) The fluorescence intensity and fluorescence spectra of Dnc-PR20 (probe 1) and Dnc-GP20 (probe 2) were measured using the same procedure as described in Section 2 above, except that aqueous solutions (1600 nM) of bovine milk-derived β-lactoglobulin, human serum-derived α1-antitrypsin, human serum-derived albumin (HSA), human serum-derived apotransferrin, chicken egg white-derived lysozyme, or human serum-derived immunoglobulin G (IgG) were used in place of the Kapβ2 solution.

[1] = test system: α1-antitrypsin, albumin (HSA), apotransferrin, lysozyme, immunoglobulin G (IgG); assay: Fluorescence change of probes by various proteins: other control proteins; type: binding, human; chicken; details: 1600 nM protein solutions; probe 300 nM
Description: as §1, §2

Imb-2 = assay: Fluorescence change of probes by LLPS-related proteins: Imb-2; type: binding, C. elegans; details: Imb-2 solution 800 nM (Figure 8)
Description: as §1
(§3) In addition to the proteins tested in Sections 2 to 4 above, aqueous solutions of proteins that may be relevant to the formation or control of liquid-liquid phase separation (LLPS) were used to measure the 520 nm fluorescence intensity of Dnc-PR20 (probe 1) and Dnc-GP20 (probe 2). The following proteins were used as proteins that may be associated with the formation or regulation of LLPS were Imb-2, hnRNPA2LC, PPIA, Impα, Impβ, GST-M9M, and RanGTP. […]

Impα = assay: Fluorescence change of probes by LLPS-related proteins: Impα; type: binding, human; details: Impα solution 1600 nM (Figure 8)
Description: as §1, §3

Impβ = assay: Fluorescence change of probes by LLPS-related proteins: Impβ; type: binding, human; details: Impβ solution 1600 nM (Figure 8)
Description: as §1, §3

[2] = probe 300 nM, excitation 340 nm

50-mer polylysine [poly K50]
fluorescence intensity change of Dnc-PR20 in Dnc-PR20/Kapβ2 solution (Dnc-PR20/Kapβ2; additive 0-300 nM): decreased in a poly K50 concentration-dependent manner | additive concentration resulting in a fluorescence intensity comparable to that of the control (Dnc-PR20/Kapβ2; control = Dnc-PR20 solution without Kapβ2): 200 nM | 520 nm fluorescence intensity change of Dnc-PR20 in Dnc-PR20/Kapβ2 mixture (Dnc-PR20/Kapβ2; various additives (Figure 10)): attenuated

CN(C)c1cccc2c(S(=O)(=O)NCC(=O)N3CCC[C@H]3C(=O)NCC(=O)N3CCC[C@H]3C(=O)NCC(=O)N3CCC[C@H]3C(=O)NCC(=O)N3CCC[C@H]3C(=O)NCC(=O)N3CCC[C@H]3C(=O)NCC(=O)N3CCC[C@H]3C(=O)NCC(=O)N3CCC[C@H]3C(=O)NCC(=O)N3CCC[C@H]3C(=O)NCC(=O)N3CCC[C@H]3C(=O)NCC(=O)N3CCC[C@H]3C(=O)O)cccc12 [Dnc-GP10, Dansyl-NH-(Gly-Pro)10-COOH] (Dansyl-GPGPGPGPGPGPGPGPGPGP-OH)
fluorescence intensity / spectrum change on addition of Kapβ2 (Kapβ2; [2]): unchanged

CN(C)c1cccc2c(S(=O)(=O)NCC(=O)N3CCC[C@H]3C(=O)NCC(=O)N3CCC[C@H]3C(=O)NCC(=O)N3CCC[C@H]3C(=O)NCC(=O)N3CCC[C@H]3C(=O)NCC(=O)N3CCC[C@H]3C(=O)NCC(=O)N3CCC[C@H]3C(=O)NCC(=O)N3CCC[C@H]3C(=O)NCC(=O)N3CCC[C@H]3C(=O)NCC(=O)N3CCC[C@H]3C(=O)NCC(=O)N3CCC[C@H]3C(=O)NCC(=O)N3CCC[C@H]3C(=O)NCC(=O)N3CCC[C@H]3C(=O)NCC(=O)N3CCC[C@H]3C(=O)NCC(=O)N3CCC[C@H]3C(=O)NCC(=O)N3CCC[C@H]3C(=O)NCC(=O)N3CCC[C@H]3C(=O)NCC(=O)N3CCC[C@H]3C(=O)NCC(=O)N3CCC[C@H]3C(=O)NCC(=O)N3CCC[C@H]3C(=O)NCC(=O)N3CCC[C@H]3C(=O)O)cccc12 [Dnc-GP20, Dansyl-NH-(Gly-Pro)20-COOH] (Dansyl-GPGPGPGPGPGPGPGPGPGPGPGPGPGPGPGPGPGPGPGP-OH)
fluorescence intensity / spectrum change on addition of Kapβ2 (Kapβ2; [2]): little changed | fluorescence intensity / spectrum change on addition of MBP-FUS (MBP-FUS; [2]): hardly changed | fluorescence spectrum / 540 nm fluorescence intensity change on addition of β-lactoglobulin (β-lactoglobulin): did not exhibit substantial changes | fluorescence spectrum change on addition of the other proteins [1]: did not exhibit substantial changes

CN(C)c1cccc2c(S(=O)(=O)NCC(=O)N[C@@H](CCCNC(=N)N)C(=O)NCC(=O)N[C@@H](CCCNC(=N)N)C(=O)NCC(=O)N[C@@H](CCCNC(=N)N)C(=O)NCC(=O)N[C@@H](CCCNC(=N)N)C(=O)NCC(=O)N[C@@H](CCCNC(=N)N)C(=O)NCC(=O)N[C@@H](CCCNC(=N)N)C(=O)NCC(=O)N[C@@H](CCCNC(=N)N)C(=O)NCC(=O)N[C@@H](CCCNC(=N)N)C(=O)NCC(=O)N[C@@H](CCCNC(=N)N)C(=O)NCC(=O)N[C@@H](CCCNC(=N)N)C(=O)O)cccc12 [Dnc-GR10, Dansyl-NH-(Gly-Arg)10-COOH] (Dansyl-GRGRGRGRGRGRGRGRGRGR-OH)
fluorescence intensity / spectrum change on addition of Kapβ2 (Kapβ2; [2]): increased in a Kapβ2 concentration-dependent manner

C[C@H](NC(=O)[C@@H]1CCCN1C(=O)[C@H](C)NC(=O)[C@@H]1CCCN1C(=O)[C@H](C)NC(=O)[C@@H]1CCCN1C(=O)[C@H](C)NC(=O)[C@@H]1CCCN1C(=O)[C@H](C)NC(=O)[C@@H]1CCCN1C(=O)[C@H](C)NC(=O)[C@@H]1CCCN1C(=O)[C@H](C)NC(=O)[C@@H]1CCCN1C(=O)[C@H](C)NC(=O)[C@@H]1CCCN1C(=O)[C@H](C)NC(=O)[C@@H]1CCCN1C(=O)[C@H](C)NC(=O)[C@@H]1CCCN1S(=O)(=O)c1cccc2c(N(C)C)cccc12)C(=O)O [Dnc-PA10, Dansyl-NH-(Pro-Ala)10-COOH] (Dansyl-PAPAPAPAPAPAPAPAPAPA-OH)
fluorescence intensity / spectrum change on addition of Kapβ2 (Kapβ2; [2]): unchanged

CN(C)c1cccc2c(S(=O)(=O)N3CCC[C@H]3C(=O)N[C@@H](CCCNC(=N)N)C(=O)N3CCC[C@H]3C(=O)N[C@@H](CCCNC(=N)N)C(=O)N3CCC[C@H]3C(=O)N[C@@H](CCCNC(=N)N)C(=O)N3CCC[C@H]3C(=O)N[C@@H](CCCNC(=N)N)C(=O)N3CCC[C@H]3C(=O)N[C@@H](CCCNC(=N)N)C(=O)N3CCC[C@H]3C(=O)N[C@@H](CCCNC(=N)N)C(=O)N3CCC[C@H]3C(=O)N[C@@H](CCCNC(=N)N)C(=O)N3CCC[C@H]3C(=O)N[C@@H](CCCNC(=N)N)C(=O)N3CCC[C@H]3C(=O)N[C@@H](CCCNC(=N)N)C(=O)N3CCC[C@H]3C(=O)N[C@@H](CCCNC(=N)N)C(=O)O)cccc12 [Dnc-PR10, Dansyl-NH-(Pro-Arg)10-COOH] (Dansyl-PRPRPRPRPRPRPRPRPRPR-OH)
fluorescence intensity / spectrum change on addition of Kapβ2 (Kapβ2; [2]): increased in a Kapβ2 concentration-dependent manner

CN(C)c1cccc2c(S(=O)(=O)N3CCC[C@H]3C(=O)N[C@@H](CCCNC(=N)N)C(=O)N3CCC[C@H]3C(=O)N[C@@H](CCCNC(=N)N)C(=O)N3CCC[C@H]3C(=O)N[C@@H](CCCNC(=N)N)C(=O)N3CCC[C@H]3C(=O)N[C@@H](CCCNC(=N)N)C(=O)N3CCC[C@H]3C(=O)N[C@@H](CCCNC(=N)N)C(=O)N3CCC[C@H]3C(=O)N[C@@H](CCCNC(=N)N)C(=O)N3CCC[C@H]3C(=O)N[C@@H](CCCNC(=N)N)C(=O)N3CCC[C@H]3C(=O)N[C@@H](CCCNC(=N)N)C(=O)N3CCC[C@H]3C(=O)N[C@@H](CCCNC(=N)N)C(=O)N3CCC[C@H]3C(=O)N[C@@H](CCCNC(=N)N)C(=O)N3CCC[C@H]3C(=O)N[C@@H](CCCNC(=N)N)C(=O)N3CCC[C@H]3C(=O)N[C@@H](CCCNC(=N)N)C(=O)N3CCC[C@H]3C(=O)N[C@@H](CCCNC(=N)N)C(=O)N3CCC[C@H]3C(=O)N[C@@H](CCCNC(=N)N)C(=O)N3CCC[C@H]3C(=O)N[C@@H](CCCNC(=N)N)C(=O)N3CCC[C@H]3C(=O)N[C@@H](CCCNC(=N)N)C(=O)N3CCC[C@H]3C(=O)N[C@@H](CCCNC(=N)N)C(=O)N3CCC[C@H]3C(=O)N[C@@H](CCCNC(=N)N)C(=O)N3CCC[C@H]3C(=O)N[C@@H](CCCNC(=N)N)C(=O)N3CCC[C@H]3C(=O)N[C@@H](CCCNC(=N)N)C(=O)O)cccc12 [Dnc-PR20, Dansyl-NH-(Pro-Arg)20-COOH] (Dansyl-PRPRPRPRPRPRPRPRPRPRPRPRPRPRPRPRPRPRPRPR-OH)
540 nm fluorescence intensity increase compared to the fluorescence intensity at 0 nM Kapβ2 (Kapβ2; 1600 nM Kapβ2, probe 300 nM, excitation 340 nm): approximately 6.1 fold | 520 nm fluorescence (Kapβ2; Kapβ2 solution 1600 nM (Figure 8)): above 1000 | fluorescence intensity / spectrum change on addition of Kapβ2 (Kapβ2; [2]): increased in a Kapβ2 concentration-dependent manner | 540 nm fluorescence intensity increase compared to the fluorescence intensity at 0 nM MBP-FUS (MBP-FUS; 1600 nM MBP-FUS, probe 300 nM, excitation 340 nm): approximately 4.6 fold | 520 nm fluorescence (MBP-FUS; MBP-FUS solution 1600 nM (Figure 8)): above 1000 | fluorescence intensity / spectrum change on addition of MBP-FUS (MBP-FUS; [2]): increased in an MBP-FUS concentration-dependent manner | fluorescence spectrum / 540 nm fluorescence intensity change on addition of β-lactoglobulin (β-lactoglobulin): slightly increased | 520 nm fluorescence (β-lactoglobulin; β-lactoglobulin solution 1600 nM (Figure 8)): above 1000 | fluorescence spectrum change on addition of the other proteins [1]: did not exhibit substantial changes | 520 nm fluorescence (Imb-2): above 1000 | 520 nm fluorescence (Impα): above 1000 | 520 nm fluorescence (Impβ): above 1000

Dansyl-NH-(Gly-Ala)19-COOH (Dansyl-GAGAGAGAGAGAGAGAGAGA-OH) [Dnc-GA10]
fluorescence intensity / spectrum change on addition of Kapβ2 (Kapβ2; [2]): unchanged
